Results as given in patent US11304949B2, “Treatment of hidradenitis suppurativa using JAK inhibitors” (Incyte Corporation, priority 2018, dated 2022).

How the values were obtained:
[1] = test system: human JAK1 (a.a. 837-1142); assay: In vitro JAK kinase assay (HTRF), JAK1; type: biochemical; conditions: IC50 ratio at 1 mM ATP
[2] = target: human JAK1 (a.a. 837-1142) (Homo sapiens, UniProt P23458); assay: In vitro JAK kinase assay (HTRF), JAK1; type: biochemical; conditions: 1 mM ATP
[3] = test system: Transformed human keratinocyte (HaCaT) cells stimulated with TNFα and IFNγ; assay: JAK inhibitors in TNFα/IFNγ stimulated keratinocytes, gene expression (QuantiGene Plex); conditions: 24 hours, normalized to HPRT1, mean ± standard error
[4] = test system: Transformed human keratinocyte (HaCaT) cells stimulated with TNFα and IFNγ; assay: JAK inhibitors in TNFα/IFNγ stimulated keratinocytes, inflammatory mediators in media (ProCarta Multiplex Immunoassay); conditions: mean ± 1 standard error
[5] = TNFα (25 ng/mL) and IFNγ (25 ng/mL), drug 25 nM
[6] = TNFα (25 ng/mL) and IFNγ (25 ng/mL), drug 50 nM
[7] = TNFα (25 ng/mL) and IFNγ (25 ng/mL), drug 100 nM
[8] = TNFα (25 ng/mL) and IFNγ (25 ng/mL), drug 200 nM
[9] = TNFα (25 ng/mL) and IFNγ (25 ng/mL) stimulation, drug 25 nM
[10] = TNFα (25 ng/mL) and IFNγ (25 ng/mL) stimulation, drug 50 nM
[11] = TNFα (25 ng/mL) and IFNγ (25 ng/mL) stimulation, drug 100 nM
[12] = TNFα (25 ng/mL) and IFNγ (25 ng/mL) stimulation, drug 200 nM

## N#CCC(C1CCN(c2cccc(Cl)n2)C1)n1cc(-c2ncnc3[nH]ccc23)cn1 (single isomer, unassigned) [Compound 6, 3-[1-(6-chloropyridin-2-yl)pyrrolidin-3-yl]-3-[4-(7H-pyrrolo[2,3-d]pyrimidin-4-yl)-1H-pyrazol-1-yl]propanenitrile]
[1]
  JAK2/JAK1: >10
[2]
  IC50: < 10 nM

## N#CCC1(n2cc(-c3ncnc4[nH]ccc34)cn2)CN(C2CCN(C(=O)Nc3ccc(F)cc3C(F)(F)F)CC2)C1 [Compound 2, 4-{3-(Cyanomethyl)-3-[4-(7H-pyrrolo[2,3-d]pyrimidin-4-yl)-1H-pyrazol-1-yl]azetidin-1-yl}-N-[4-fluoro-2-(trifluoromethyl)phenyl]piperidine-1-carboxamide]
[1]
  JAK2/JAK1: >10
[2]
  IC50: < 10 nM

## N#CCC1(n2cc(-c3ncnc4[nH]ccc34)cn2)CN(C2CCN(C(=O)c3ccnc(C(F)(F)F)n3)CC2)C1 [Compound 3, [3-[4-(7H-pyrrolo[2,3-d]pyrimidin-4-yl)-1H-pyrazol-1-yl]-1-(1-{[2-(trifluoromethyl)pyrimidin-4-yl]carbonyl}piperidin-4-yl)azetidin-3-yl]acetonitrile]
[1]
  JAK2/JAK1: >10
[2]
  IC50: < 10 nM

## Cc1n[nH]c(C)c1-c1cnn(C2(CC#N)CN(c3cc(F)c(C(=O)N[C@@H](C)C(F)(F)F)cc3F)C2)c1 [Compound 4]
[3]; [5]
  IL-1α MFI: 1370.52 ± 35.28
  IL-6 MFI: 135.32 ± 3.36
  JAK1 MFI: 206.29 ± 6.84
  JAK2 MFI: 114.94 ± 2.16
  JAK3 MFI: 1.02 ± 0.19
  STAT1 MFI: 3111.17 ± 182.20
  STAT3 MFI: 1557.84 ± 58.15
  STAT4 MFI: 5.65 ± 0.44
  STAT5A MFI: 22.82 ± 1.77
  STAT6 MFI: 1020.89 ± 23.57
  TYK2 MFI: 283.97 ± 8.59
[3]; [6]
  IL-1α MFI: 1308.7 ± 45.12
  IL-6 MFI: 128.14 ± 6.83
  JAK1 MFI: 194.2 ± 8.24
  JAK2 MFI: 107.16 ± 2.86
  JAK3 MFI: 0.99 ± 0.16
  STAT1 MFI: 3058.64 ± 154.86
  STAT3 MFI: 1519.61 ± 69.92
  STAT4 MFI: 5.41 ± 0.33
  STAT5A MFI: 20.71 ± 1.77
  STAT6 MFI: 982.62 ± 14.34
  TYK2 MFI: 273.68 ± 7.44
[3]; [7]
  IL-1α MFI: 1194.29 ± 12.27
  IL-6 MFI: 112.13 ± 3.37
  JAK1 MFI: 193.28 ± 4.55
  JAK2 MFI: 95.51 ± 3.13
  JAK3 MFI: 0.99 ± 0.15
  STAT1 MFI: 3035.33 ± 122.14
  STAT3 MFI: 1457.24 ± 54.48
  STAT4 MFI: 5.32 ± 0.46
  STAT5A MFI: 18.44 ± 1.85
  STAT6 MFI: 943.66 ± 25.99
  TYK2 MFI: 266 ± 6.82
[3]; [8]
  IL-1α MFI: 1151.31 ± 20.01
  IL-6 MFI: 101.17 ± 2.91
  JAK1 MFI: 182.86 ± 4.07
  JAK2 MFI: 91.17 ± 2.15
  JAK3 MFI: 0.85 ± 0.15
  STAT1 MFI: 2984.14 ± 163.4
  STAT3 MFI: 1483.1 ± 51.73
  STAT4 MFI: 5.04 ± 0.36
  STAT5A MFI: 17.64 ± 1.46
  STAT6 MFI: 966.51 ± 12.3
  TYK2 MFI: 263.49 ± 5.05
[3]; no stimulation, drug 200 nM
  IL-1α MFI: 88.72 ± 5.90
  IL-6 MFI: 4.98 ± 0.28
  JAK1 MFI: 177.67 ± 11.84
  JAK2 MFI: 25.25 ± 1.04
  JAK3 MFI: 0.68 ± 0.17
  STAT1 MFI: 554.39 ± 11.80
  STAT3 MFI: 746.17 ± 16.73
  STAT4 MFI: 4.28 ± 0.61
  STAT5A MFI: 1.75 ± 0.44
  STAT6 MFI: 762.04 ± 9.44
  TYK2 MFI: 217.28 ± 14.28
[4]; [9]
  IL-1α concentration in media: 7.74 ± 0.36 pg/mL
  IL-6 concentration in media: 774.87 ± 31.09 pg/mL
  IP-10/CXCL10 concentration in media: 3999.39 ± 370.53 pg/mL
  MIP1α concentration in media: 101.71 ± 3.84 pg/mL
  RANTES concentration in media: 216.88 ± 13.45 pg/mL
[4]; [10]
  IL-1α concentration in media: 7.01 ± 0.39 pg/mL
  IL-6 concentration in media: 710.89 ± 36.7 pg/mL
  IP-10/CXCL10 concentration in media: 3665.2 ± 277.11 pg/mL
  MIP1α concentration in media: 104.54 ± 6.56 pg/mL
  RANTES concentration in media: 201.93 ± 15.44 pg/mL
[4]; [11]
  IL-1α concentration in media: 7.27 ± 0.47 pg/mL
  IL-6 concentration in media: 690.4 ± 35.25 pg/mL
  IP-10/CXCL10 concentration in media: 3860.41 ± 323.05 pg/mL
  MIP1α concentration in media: 96.4 ± 4.18 pg/mL
  RANTES concentration in media: 207.79 ± 17.38 pg/mL
[4]; [12]
  IL-1α concentration in media: 6.45 ± 0.38 pg/mL
  IL-6 concentration in media: 621.79 ± 33.44 pg/mL
  IP-10/CXCL10 concentration in media: 3835.78 ± 304.58 pg/mL
  MIP1α concentration in media: 98.72 ± 3.87 pg/mL
  RANTES concentration in media: 189.62 ± 13.78 pg/mL
[4]; no stimulation, drug 200 nM
  IL-1α concentration in media: 0.30 ± 0.05 pg/mL
  IL-6 concentration in media: 28.79 ± 2.91 pg/mL
  IP-10/CXCL10 concentration in media: 20.23 ± 0.48 pg/mL
  MIP1α concentration in media: 2.90 ± 0.21 pg/mL
  RANTES concentration in media: 8.61 ± 0.52 pg/mL

## N#CCC(C1CCN(c2nc3cccnc3o2)C1)n1cc(-c2ncnc3[nH]ccc23)cn1 (centres unmarked) [Compound 7, 3-(1-[1,3]oxazolo[5,4-b]pyridin-2-ylpyrrolidin-3-yl)-3-[4-(7H-pyrrolo[2,3-d]pyrimidin-4-yl)-1H-pyrazol-1-yl]propanenitrile]
[1]
  JAK2/JAK1: >10
[2]
  IC50: < 10 nM

## N#CCC(CN1CCN(C(=O)c2ccc(C#N)cc2F)CC1)n1cc(-c2ncnc3[nH]ccc23)cn1 (centres unmarked) [Compound 8, 4-[(4-{3-cyano-2-[4-(7H-pyrrolo[2,3-d]pyrimidin-4-yl)-1H-pyrazol-1-yl]propyl}piperazin-1-yl)carbonyl]-3-fluorobenzonitrile]
[1]
  JAK2/JAK1: >10
[2]
  IC50: < 10 nM

## N#CCC(CN1CCN(C(=O)c2ccc(C#N)cc2F)CC1)n1ccc(-c2ncnc3[nH]ccc23)c1 (centres unmarked) [Compound 9, 4-[(4-{3-cyano-2-[3-(7H-pyrrolo[2,3-d]pyrimidin-4-yl)-1H-pyrrol-1-yl]propyl}piperazin-1-yl)carbonyl]-3-fluorobenzonitrile]
[1]
  JAK2/JAK1: >10
[2]
  IC50: < 10 nM

## N#CC[C@]1(n2cc(-c3ncnc4[nH]ccc34)cn2)C[C@H](N2CCN(C(=O)c3ccnc(C(F)(F)F)n3)CC2)C1 [Compound 10, [trans-1-[4-(7H-pyrrolo[2,3-d]pyrimidin-4-yl)-1H-pyrazol-1-yl]-3-(4-{[2-(trifluoromethyl)pyrimidin-4-yl]carbonyl}piperazin-1-yl)cyclobutyl]acetonitrile]
[1]
  JAK2/JAK1: >10
[2]
  IC50: < 10 nM

## N#CC[C@]1(n2cc(-c3ncnc4[nH]ccc34)cn2)C[C@H](N2CCC(Oc3cc(CN4CC(O)C4)cc(C(F)(F)F)n3)CC2)C1 [Compound 11, {trans-3-(4-{[4-[(3-hydroxyazetidin-1-yl)methyl]-6-(trifluoromethyl)pyridin-2-yl]oxy}piperidin-1-yl)-1-[4-(7H-pyrrolo[2,3-d]pyrimidin-4-yl)-1H-pyrazol-1-yl]cyclobutyl}acetonitrile]
[1]
  JAK2/JAK1: >10
[2]
  IC50: < 10 nM

## N#CC[C@]1(n2cc(-c3ncnc4[nH]ccc34)cn2)C[C@H](N2CCC(Oc3cc(CN4CCC[C@H]4CO)cc(C(F)(F)F)n3)CC2)C1 [Compound 12, {trans-3-(4-{[4-{[(2S)-2-(hydroxymethyl)pyrrolidin-1-yl]methyl}-6-(trifluoromethyl)pyridin-2-yl]oxy}piperidin-1-yl)-1-[4-(7H-pyrrolo[2,3-d]pyrimidin-4-yl)-1H-pyrazol-1-yl]cyclobutyl}acetonitrile]
[1]
  JAK2/JAK1: >10
[2]
  IC50: < 10 nM
